Data: the NIST ThermoML archive (doi:10.1016/j.jct.2005.10.002)
Several values for one entry are separate records, joined by “and”; a condition that tells them apart may be missing. Identical values can stand only once. ± gives the expanded uncertainty stated by the source.

Details: Liquid; for mass density: 101.33 kPa

CCC(C)(O)CC [3-methyl-3-pentanol]
Details	mass density
278.15 K	840.5 ± 0.7 kg/m3 and 841 ± 0.7 kg/m3
279.15 K	839.7 ± 0.7 kg/m3 and 840.2 ± 0.7 kg/m3
280.15 K	838.9 ± 0.7 kg/m3 and 839.4 ± 0.7 kg/m3
281.15 K	838.1 ± 0.7 kg/m3 and 838.5 ± 0.7 kg/m3
282.15 K	837.2 ± 0.7 kg/m3 and 837.7 ± 0.7 kg/m3
283.15 K	836.4 ± 0.7 kg/m3 and 836.8 ± 0.7 kg/m3
284.15 K	835.6 ± 0.7 kg/m3 and 836 ± 0.7 kg/m3
285.15 K	834.8 ± 0.7 kg/m3 and 835.2 ± 0.7 kg/m3
286.15 K	833.9 ± 0.7 kg/m3 and 834.4 ± 0.7 kg/m3
287.15 K	833.5 ± 0.7 kg/m3 and 833.1 ± 0.7 kg/m3
288.15 K	832.7 ± 0.7 kg/m3 and 832.3 ± 0.7 kg/m3
289.15 K	831.9 ± 0.7 kg/m3 and 831.4 ± 0.7 kg/m3
290.15 K	831 ± 0.7 kg/m3 and 830.6 ± 0.7 kg/m3
291.15 K	830.1 ± 0.7 kg/m3 and 829.7 ± 0.7 kg/m3
292.15 K	829.3 ± 0.7 kg/m3 and 828.9 ± 0.7 kg/m3
293.15 K	828.5 ± 0.7 kg/m3 and 828 ± 0.7 kg/m3
294.15 K	827.6 ± 0.7 kg/m3 and 827.1 ± 0.7 kg/m3
295.15 K	826.7 ± 0.7 kg/m3 and 826.3 ± 0.7 kg/m3
296.15 K	825.9 ± 0.7 kg/m3 and 825.4 ± 0.7 kg/m3
297.15 K	825 ± 0.7 kg/m3 and 824.5 ± 0.7 kg/m3
298.15 K	824.1 ± 0.7 kg/m3 and 823.6 ± 0.7 kg/m3
299.15 K	823.2 ± 0.7 kg/m3 and 822.8 ± 0.7 kg/m3
300.15 K	822.3 ± 0.7 kg/m3 and 821.9 ± 0.7 kg/m3
301.15 K	821.5 ± 0.7 kg/m3 and 821 ± 0.7 kg/m3
302.15 K	820.6 ± 0.7 kg/m3 and 820.1 ± 0.7 kg/m3
303.15 K	819.7 ± 0.7 kg/m3 and 819.2 ± 0.7 kg/m3
304.15 K	818.8 ± 0.7 kg/m3 and 818.3 ± 0.7 kg/m3
305.15 K	817.9 ± 0.7 kg/m3 and 817.4 ± 0.7 kg/m3
306.15 K	816.9 ± 0.7 kg/m3 and 816.5 ± 0.7 kg/m3
307.15 K	816 ± 0.7 kg/m3 and 815.5 ± 0.7 kg/m3
308.15 K	815.1 ± 0.7 kg/m3 and 814.6 ± 0.7 kg/m3
309.15 K	814.2 ± 0.7 kg/m3 and 813.7 ± 0.7 kg/m3
310.15 K	813.3 ± 0.7 kg/m3 and 812.8 ± 0.7 kg/m3
311.15 K	812.3 ± 0.7 kg/m3 and 811.8 ± 0.7 kg/m3
312.15 K	811.4 ± 0.7 kg/m3 and 810.9 ± 0.7 kg/m3
313.15 K	810.5 ± 0.7 kg/m3 and 810 ± 0.7 kg/m3
314.15 K	809.5 ± 0.7 kg/m3 and 809 ± 0.7 kg/m3
315.15 K	808.6 ± 0.7 kg/m3 and 808.1 ± 0.7 kg/m3
316.15 K	807.6 ± 0.7 kg/m3 and 807.1 ± 0.7 kg/m3
317.15 K	806.7 ± 0.7 kg/m3 and 806.2 ± 0.7 kg/m3
318.15 K	805.7 ± 0.7 kg/m3 and 805.2 ± 0.7 kg/m3
319.15 K	804.8 ± 0.7 kg/m3 and 804.3 ± 0.7 kg/m3
320.15 K	803.8 ± 0.7 kg/m3 and 803.3 ± 0.7 kg/m3
321.15 K	802.8 ± 0.7 kg/m3 and 802.3 ± 0.7 kg/m3
322.15 K	801.9 ± 0.7 kg/m3 and 801.3 ± 0.7 kg/m3
323.15 K	800.9 ± 0.7 kg/m3 and 800.4 ± 0.7 kg/m3
324.15 K	799.9 ± 0.7 kg/m3 and 799.4 ± 0.7 kg/m3
325.15 K	798.9 ± 0.7 kg/m3 and 798.4 ± 0.7 kg/m3
326.15 K	798 ± 0.7 kg/m3 and 797.4 ± 0.7 kg/m3
327.15 K	797 ± 0.7 kg/m3 and 796.4 ± 0.7 kg/m3
328.15 K	796 ± 0.7 kg/m3 and 795.4 ± 0.7 kg/m3
329.15 K	795 ± 0.7 kg/m3 and 794.4 ± 0.7 kg/m3
330.15 K	794 ± 0.8 kg/m3 and 793.4 ± 0.8 kg/m3
331.15 K	793 ± 0.8 kg/m3 and 792.4 ± 0.8 kg/m3
332.15 K	792 ± 0.8 kg/m3 and 791.4 ± 0.8 kg/m3
333.15 K	791 ± 0.8 kg/m3 and 790.4 ± 0.8 kg/m3
334.15 K	789.9 ± 0.8 kg/m3 and 789.4 ± 0.8 kg/m3
335.15 K	788.9 ± 0.8 kg/m3 and 788.4 ± 0.8 kg/m3
336.15 K	787.9 ± 0.8 kg/m3 and 787.4 ± 0.8 kg/m3
337.15 K	786.9 ± 0.8 kg/m3 and 786.4 ± 0.8 kg/m3
338.15 K	785.9 ± 0.8 kg/m3 and 785.3 ± 0.8 kg/m3
339.15 K	784.3 ± 0.8 kg/m3
340.15 K	783.3 ± 0.8 kg/m3
341.15 K	782.3 ± 0.8 kg/m3
342.15 K	781.2 ± 0.8 kg/m3
343.15 K	780.2 ± 0.8 kg/m3
344.15 K	779.1 ± 0.8 kg/m3
345.15 K	778.1 ± 0.8 kg/m3
346.15 K	777.1 ± 0.8 kg/m3
347.15 K	776 ± 0.8 kg/m3
348.15 K	775 ± 0.8 kg/m3
349.15 K	773.9 ± 0.8 kg/m3
350.15 K	772.9 ± 0.8 kg/m3
351.15 K	771.8 ± 0.8 kg/m3
352.15 K	770.7 ± 0.8 kg/m3
353.15 K	769.7 ± 0.8 kg/m3
354.15 K	768.6 ± 0.8 kg/m3
355.15 K	767.6 ± 0.8 kg/m3
356.15 K	766.5 ± 0.8 kg/m3
357.15 K	765.4 ± 0.8 kg/m3
358.15 K	764.4 ± 0.8 kg/m3
359.15 K	763.3 ± 0.8 kg/m3
360.15 K	762.2 ± 0.8 kg/m3
361.15 K	761.1 ± 0.8 kg/m3
362.15 K	760.1 ± 0.8 kg/m3
363.15 K	759 ± 0.8 kg/m3
364.15 K	757.9 ± 0.8 kg/m3
365.15 K	756.8 ± 0.8 kg/m3
366.15 K	755.7 ± 0.8 kg/m3
367.15 K	754.6 ± 0.8 kg/m3
368.15 K	753.5 ± 0.8 kg/m3

speed of sound [m/s]
Details	303.15 K	313.15 K	323.15 K	333.15 K	343.15 K	353.15 K	363.15 K	373.15 K
100 kPa	1230.7 ± 3.5	1192.7 ± 3.4	1154.4 ± 3.3	1115.7 ± 3.3	1077.3 ± 3.2	1037.7 ± 3.1	998.2 ± 3	957.7 ± 2.9
10000 kPa	1290.1 ± 3.7	1254.9 ± 3.6	1219.2 ± 3.5	1183.6 ± 3.4	1148 ± 3.3	1111.6 ± 3.2	1076.2 ± 3.2	1039.5 ± 3.1
20000 kPa	1344.9 ± 3.8	1311.8 ± 3.7	1278.7 ± 3.6	1245 ± 3.6	1211.1 ± 3.5	1177.7 ± 3.4	1144.6 ± 3.3	1110.9 ± 3.2
30000 kPa	1396.1 ± 3.9	1365 ± 3.8	1332.4 ± 3.8	1300.4 ± 3.7	1268.5 ± 3.6	1236.9 ± 3.5	1205.4 ± 3.5	1174 ± 3.4
40000 kPa	1443.3 ± 4	1412.6 ± 3.9	1382.1 ± 3.9	1351.9 ± 3.8	1321.7 ± 3.7	1291.4 ± 3.7	1261.4 ± 3.6	1231.1 ± 3.5
50000 kPa	1487.1 ± 4.1	1457.9 ± 4.1	1428.9 ± 4	1399.7 ± 3.9	1370.5 ± 3.8	1342.1 ± 3.8	1312.6 ± 3.7	1283.7 ± 3.6
60000 kPa	1529.7 ± 4.2	1500.4 ± 4.2	1472.8 ± 4.1	1444.4 ± 4	1416 ± 4	1387.8 ± 3.9	1359.8 ± 3.8	1332 ± 3.8
70000 kPa	1568.8 ± 4.3	1540.7 ± 4.2	1513.6 ± 4.2	1486.1 ± 4.1	1458.4 ± 4.1	1431.2 ± 4	1404.8 ± 3.9	1377.5 ± 3.9
80000 kPa	1606.2 ± 4.4	1578.9 ± 4.3	1552.8 ± 4.3	1525.6 ± 4.2	1499.4 ± 4.2	1472.7 ± 4.1	1446.9 ± 4	1420.3 ± 4
90000 kPa	1641.7 ± 4.5	1615 ± 4.4	1589.9 ± 4.4	1563.8 ± 4.3	1537.9 ± 4.2	1511.9 ± 4.2	1486.5 ± 4.1	1461.1 ± 4.1
100000 kPa	1675.9 ± 4.6	1650 ± 4.5	1624.9 ± 4.4	1599.9 ± 4.4	1574.6 ± 4.3	1549.3 ± 4.3	1524.4 ± 4.2	1499.3 ± 4.2

CCC(O)(CC)CC [3-ethyl-3-pentanol]
speed of sound [m/s]
Details	303.15 K	313.15 K	323.15 K	333.15 K	343.15 K	353.15 K	363.15 K	373.15 K
100 kPa	1269.7 ± 4	1229.3 ± 3.9	1189.8 ± 3.8	1152.4 ± 3.8	1113 ± 3.7	1073.7 ± 3.6	1034.6 ± 3.5	994.7 ± 3.4
10000 kPa	1326.5 ± 4.1	1289.3 ± 4	1255.2 ± 4	1217.3 ± 3.9	1180.3 ± 3.8	1144 ± 3.7	1107.3 ± 3.7	1072 ± 3.6
20000 kPa	1379.5 ± 4.2	1346 ± 4.2	1311.9 ± 4.1	1277.4 ± 4	1241.1 ± 3.9	1207.5 ± 3.9	1172.7 ± 3.8	1139.6 ± 3.7
30000 kPa	1429.1 ± 4.3	1393.8 ± 4.3	1364.3 ± 4.2	1330.3 ± 4.1	1297.2 ± 4.1	1264.4 ± 4	1232.5 ± 3.9	1200.6 ± 3.9
40000 kPa	1474.3 ± 4.4	1440.8 ± 4.4	1412.8 ± 4.3	1379.9 ± 4.2	1349.5 ± 4.2	1317.4 ± 4.1	1286.4 ± 4	1256.3 ± 4
50000 kPa	1515.9 ± 4.5	1484.5 ± 4.5	1459 ± 4.4	1426.5 ± 4.3	1396 ± 4.3	1366 ± 4.2	1336.4 ± 4.1	1307.4 ± 4.1
60000 kPa	1556.7 ± 4.6	1526 ± 4.6	1500.7 ± 4.5	1470.6 ± 4.4	1441.1 ± 4.4	1411.1 ± 4.3	1383.4 ± 4.2	1354.2 ± 4.2
70000 kPa	1594.7 ± 4.7	1564.6 ± 4.6	1541 ± 4.6	1511 ± 4.5	1482.7 ± 4.5	1454.8 ± 4.4	1427.4 ± 4.3	1400 ± 4.3
80000 kPa	1632.3 ± 4.8	1602.2 ± 4.7	1580.4 ± 4.7	1550.1 ± 4.6	1522 ± 4.5	1494.6 ± 4.5	1467.9 ± 4.4	1440.9 ± 4.4
90000 kPa	1667.3 ± 4.9	1638.3 ± 4.8	1616.9 ± 4.8	1587.4 ± 4.7	1560.4 ± 4.6	1533.6 ± 4.6	1507.1 ± 4.5	1481.4 ± 4.5
100000 kPa	1700.2 ± 4.9	1672.4 ± 4.9	1651.3 ± 4.8	1622.8 ± 4.8	1596.4 ± 4.7	1570.4 ± 4.7	1544.3 ± 4.6	1519.4 ± 4.5
